Earlier results as cited in PubChem BioAssay AID1259410 (Chemical Carcinogenesis Research Information System (CCRIS), 2018).

System: rodent tumor promotion studies, tumor incidence
Experiment: CCRIS tumor promotion studies
Details: Route [Promoter]: DERMAL, Species: MOUSE

Measured: outcome

CCCCCCCCCCCCCC(=O)O[C@@H]1[C@@H](C)[C@@]2(O)[C@@H](C=C(CO)C[C@]3(O)C(=O)C(C)=C[C@@H]23)[C@@H]2C(C)(C)[C@]12OC(C)=O
skin: papilloma: Carcinogen: 2'-(4-NITROPHENOXY)OXIRANE, 59485-08-4, Doses [Carcinogen]: 5 UMOL IN 0.2 ML 15% DMSO IN ACETONE ONCE, Doses [Promoter]: 0, 15 NMOL IN 0.1 ML ACETONE ONCE 18-24 HR PRIOR TO CARCINOGEN DOSE THEN BEGINNING 1 WK LATER 2/WK FOR DURATION OF STUDY, Route [Carcinogen]: DERMAL, Strain/Sex: ICR/FEMALE | Carcinogen: 4-NITROPHENYL VINYL ETHER, 940-14-7, Doses [Carcinogen]: 5 UMOL IN 0.2 ML 15% DMSO IN ACETONE ONCE, Doses [Promoter]: 0, 15 NMOL IN 0.1 ML ACETONE ONCE 18-24 HR PRIOR TO CARCINOGEN DOSE THEN BEGINNING 1 WK LATER 2/WK FOR DURATION OF STUDY, Route [Carcinogen]: DERMAL, Strain/Sex: ICR/FEMALE | Carcinogen: 5-CHLOROMETHYLFURFURAL, 1623-88-7, Doses [Carcinogen]: 0, 10, 25 UMOL IN O.2 ML ACETONE:DMSO ONCE, Doses [Carcinogen]: 0, 10, 25 UMOL IN O.2 ML ACETONE:DMSO ONCE, Doses [Promoter]: 0, 2.5 UG 2/WK FOR 24 WK BEGINNING 1 WK POST CARCINOGEN DOSE (STUDY DURATION: 24 WK), Route [Carcinogen]: DERMAL, Strain/Sex: CD-1/FEMALE | Carcinogen: 5-HYDROXYMETHYLFURFURAL, 67-47-0, Doses [Carcinogen]: 0, 10, 25 UMOL IN 0.2 ML ACETONE:DMSO ONCE, Doses [Carcinogen]: 0, 10, 25 UMOL IN 0.2 ML ACETONE:DMSO ONCE, Doses [Promoter]: 0, 2.5 UG 2/WK FOR 24 WK BEGINNING 1 WK POST CARCINOGEN DOSE (STUDY DURATION: 24 WK), Route [Carcinogen]: DERMAL, Strain/Sex: CD-1/FEMALE | Carcinogen: 5-SULFOOXYMETHYLFURFURAL, 159091-35-7, Doses [Carcinogen]: 0, 25 UMOL IN 0.2 ML ACETONE:DMSO ONCE, Doses [Promoter]: 0, 2.5 UG 2/WK FOR 24 WK BEGINNING 1 WK POST CARCINOGEN DOSE (STUDY DURATION: 24 WK), Route [Carcinogen]: DERMAL, Strain/Sex: CD-1/FEMALE
skin:tumor: Carcinogen: 3'-AZIDO-2',3'-DIDEOXYTHYMIDINE, 30516-87-1, Doses [Carcinogen]: 0, 25 MG IN 0.5 ML DISTILLED WATER ADMINISTERED TO PREGNANT RATS ON DAYS 12-18 OF GESTATION, Doses [Promoter]: 2 UG IN 0.1 ML DISTILLED WATER 2/WK FOR 17 WK THEN 5 UG IN 0.1 ML DISTILLED WATER 2/WK FROM WK 18 TO 35 ADMINISTERED TO, Route [Carcinogen]: GAVAGE, Strain/Sex: CD-1/MALE,FEMALE
skin: tumors: Carcinogen: 1,3-DIMETHYLBENZO[B]FLUORANTHRENE, 95741-51-8, Doses [Carcinogen]: 40, 100 NMOL TOTAL DOSES GIVEN IN 10 SUBDOSES 1/2 D IN 0.1 ML ACETONE, Doses [Promoter]: 2.5 UG IN 0.1 ML ACETONE 3/WK FOR 30 WK BEGINNING 10 D POST CARCINOGEN TREATMENT (STUDY DURATION: 34 WK), Route [Carcinogen]: DERMAL, Strain/Sex: CD-1/FEMALE | Carcinogen: 1-METHYL-4H-CYCLOPENTA[DEF]PHENANTHRENE, 98090-89-2, Doses [Carcinogen]: 100 UG IN ACETONE (100 µL) 1/2 D FOR A TOTAL OF 10 SUBDOSES (TOTAL DOSE 1 MG), Doses [Promoter]: 0.0025% IN 100 µL ACETONE 3/WK FOR 20 WK BEGINNING POST CARCINOGEN TREATMENT (STUDY DURATION: 23 WK), Route [Carcinogen]: DERMAL, Strain/Sex: CD-1/FEMALE | Carcinogen: 1-METHYLBENZO[B]FLUORANTHRENE, 95741-48-3, Doses [Carcinogen]: 100 NMOL TOTAL DOSE GIVEN IN 10 SUBDOSES 1/2 D IN 0.1 ML ACETONE, Doses [Promoter]: 2.5 UG IN 0.1 ML ACETONE 3/WK FOR 30 WK BEGINNING 10 D POST CARCINOGEN TREATMENT (STUDY DURATION: 34 WK), Route [Carcinogen]: DERMAL, Strain/Sex: CD-1/FEMALE | Carcinogen: 3-METHYLBENZO[B]FLUORANTHRENE, 95741-50-7, Doses [Carcinogen]: 40, 100 NMOL TOTAL DOSE GIVEN IN 10 SUBDOSES 1/2 D IN 0.1 ML ACETONE, Doses [Promoter]: 2.5 UG IN 0.1 ML ACETONE 3/WK FOR 30 WK BEGINNING 10 D POST CARCINOGEN TREATMENT (STUDY DURATION: 34 WK), Route [Carcinogen]: DERMAL, Strain/Sex: CD-1/FEMALE | Carcinogen: 4-CYCLOPENTA[DEF]CHRYSEN-4-ONE, 86853-91-0, Doses [Carcinogen]: 100 UG IN ACETONE (100 µL) 1/2 D FOR A TOTAL OF 10 SUBDOSES (TOTAL DOSE 1 MG), Doses [Promoter]: 0.0025% IN 100 µL ACETONE 3/WK FOR 20 WK BEGINNING POST CARCINOGEN TREATMENT (STUDY DURATION: 23 WK), Route [Carcinogen]: DERMAL, Strain/Sex: CD-1/FEMALE | Carcinogen: 4H-CYCLOPENTA[DEF]CHRYSENE, 202-98-2, Doses [Carcinogen]: 100 UG IN ACETONE (100 µL) 1/2 D FOR A TOTAL OF 10 SUBDOSES (TOTAL DOSE 1 MG), Doses [Promoter]: 0.0025% IN 100 µL ACETONE 3/WK FOR 20 WK BEGINNING POST CARCINOGEN TREATMENT (STUDY DURATION: 23 WK), Route [Carcinogen]: DERMAL, Strain/Sex: CD-1/FEMALE | Carcinogen: 5-METHYLCHRYSENE, 3697-24-3, Doses [Carcinogen]: 33, 100 NMOL IN 0.1 ML ACETONE ONCE, Doses [Promoter]: 2.5 UG IN 0.1 ML ACETONE 3/WK FOR 25 WK BEGINNING 10 D POST INITIATION (STUDY DURATION: 27 WK), Route [Carcinogen]: DERMAL, Strain/Sex: CD-1/FEMALE
skin: tumor: Carcinogen: 1,2-DIHYDRO-1,2-DIHYDROXY-5,6-DIMETHYLCHRYSENE, 139562-14-4, Doses [Carcinogen]: 33, 100 NMOL IN 0.1 ML ACETONE ONCE, Doses [Promoter]: 0, 2.5 UG IN 0.1 ML ACETONE 3/WK FOR 20 WK BEGINNING 10 D POST CARCINOGEN DOSE (STUDY DURATION: 20 WK), Route [Carcinogen]: DERMAL, Strain/Sex: CD-1/FEMALE | Carcinogen: 2-AMINO-3-METHYL-9H-PYRIDO[2,3-B]INDOLE, 68006-83-7, Doses [Carcinogen]: 0, 4 MG/0.1 ML DMSO 2/WK FOR 5 WK, Doses [Promoter]: 2.5 UG IN 0.1 ML ACETONE 2/WK FOR 47 WK BEGINNING 1 WK POST CARCINOGEN TREATMENT (STUDY DURATION: 48 WK), Route [Carcinogen]: DERMAL, Strain/Sex: CD-1/FEMALE | Carcinogen: 2-AMINO-5-PHENYLPYRIDINE, 33421-40-8, Doses [Carcinogen]: 0, 10 MG/0.1 ML DMSO 2/WK FOR 5 WK, Doses [Promoter]: 2.5 UG IN 0.1 ML ACETONE 2/WK FOR 47 WK BEGINNING 1 WK POST CARCINOGEN TREATMENT (STUDY DURATION: 48 WK), Route [Carcinogen]: DERMAL, Strain/Sex: CD-1/FEMALE | Carcinogen: 2-METHYLBENZO[K]FLUORANTHENE, 95741-57-4, Doses [Carcinogen]: 4 UMOL (TOTAL DOSE) ADMINISTERED IN 10 SUBDOSES 1/2 D, Doses [Promoter]: 2.5 UG IN 0.1 ML ACETONE 3/WK FOR 30 WK BEGINNING 10 D POST CARCINOGEN TREATMENT (STUDY DURATION: 33 WK), Route [Carcinogen]: DERMAL, Strain/Sex: CRL:CD-1/FEMALE | Carcinogen: 3-AMINO-1,4-DIMETHYL-5H-PYRIDO[4,3-B]INDOLE, 62450-06-0, Doses [Carcinogen]: 0, 2 MG/0.1 ML DMSO 2/WK FOR 5 WK, Doses [Promoter]: 2.5 UG IN 0.1 ML ACETONE 2/WK FOR 47 WK BEGINNING 1 WK POST CARCINOGEN TREATMENT (STUDY DURATION: 48 WK), Route [Carcinogen]: DERMAL, Strain/Sex: CD-1/FEMALE | Carcinogen: 3-AMINO-1-METHYL-5H-PYRIDO[4,3-B]INDOLE, 62450-07-1, Doses [Carcinogen]: 0, 2 MG/0.1 ML DMSO 2/WK FOR 5 WK, Doses [Promoter]: 2.5 UG IN 0.1 ML ACETONE 2/WK FOR 47 WK BEGINNING 1 WK POST CARCINOGEN TREATMENT (STUDY DURATION: 48 WK), Route [Carcinogen]: DERMAL, Strain/Sex: CD-1/FEMALE | Carcinogen: 3-METHYLCHOLANTHRENE, 56-49-5, Doses [Promoter]: 0, 1.8 NMOL IN 0.1 ML ACETONE 2/WK FOR 4 WK BEGINNING 6 WK POST CARCINOGEN DOSE (STUDY DURATION: 2 YR), Route [Carcinogen]: SUBCUTANEOUS, Strain/Sex: S/RVCRI/FEMALE | Carcinogen: 4-FLUOROBENZO[B]FLUORANTHENE, 146746-67-0, Doses [Carcinogen]: 10, 40, 120, 400 NMOL (TOTAL DOSE) APPLIED 1/2 D FOR 10 SUBDOSES, Doses [Carcinogen]: 10, 40, 120, 400 NMOL (TOTAL DOSE) APPLIED 1/2 D FOR 10 SUBDOSES, Doses [Promoter]: 0, 2.5 UG IN 100 µL ACETONE 3/WK FOR 20 WK BEGINNING 10 D POST CARCINOGEN TREATMENT (STUDY DURATION: 22 WK), Route [Carcinogen]: DERMAL, Strain/Sex: CRL:CD-1/FEMALE | Carcinogen: 4-FLUOROBENZO[J]FLUORANTHENE, 129286-36-8, Doses [Carcinogen]: 0.3, 1, 2 UMOL (TOTAL DOSE) ADMINISTERED IN SUBDOSES 1/2 D, Doses [Carcinogen]: 0.3, 1, 2 UMOL (TOTAL DOSE) ADMINISTERED IN SUBDOSES 1/2 D, Doses [Promoter]: 2.5 UG IN 100 µL ACETONE 3/WK FOR 20 WK BEGINNING 10 D POST LAST CARCINOGEN DOSE (STUDY DURATION: 27 WK), Route [Carcinogen]: DERMAL, Strain/Sex: CD-1/FEMALE | Carcinogen: 5,6-DIMETHYLCHRYSENE, 3697-27-6, Doses [Carcinogen]: 100 NMOL IN 0.1 ML ACETONE ONCE, Doses [Promoter]: 0, 2.5 UG IN 0.1 ML ACETONE 3/WK FOR 20 WK BEGINNING 10 D POST CARCINOGEN DOSE (STUDY DURATION: 20 WK), Route [Carcinogen]: DERMAL, Strain/Sex: CD-1/FEMALE | Carcinogen: 5-FLUOROBENZO[B]FLUORANTHENE, 146746-68-1, Doses [Carcinogen]: 10, 40, 120, 400 NMOL (TOTAL DOSE) APPLIED 1/2 D FOR 10 SUBDOSES, Doses [Carcinogen]: 10, 40, 120, 400 NMOL (TOTAL DOSE) APPLIED 1/2 D FOR 10 SUBDOSES, Doses [Promoter]: 0, 2.5 UG IN 100 µL ACETONE 3/WK FOR 20 WK BEGINNING 10 D POST CARCINOGEN TREATMENT (STUDY DURATION: 22 WK), Route [Carcinogen]: DERMAL, Strain/Sex: CRL:CD-1/FEMALE | Carcinogen: 6-FLUOROBENZO[B]FLUORANTHENE, 125811-13-4, Doses [Carcinogen]: 10, 40, 120, 400 NMOL (TOTAL DOSE) APPLIED 1/2 D FOR 10 SUBDOSES, Doses [Carcinogen]: 10, 40, 120, 400 NMOL (TOTAL DOSE) APPLIED 1/2 D FOR 10 SUBDOSES, Doses [Promoter]: 0, 2.5 UG IN 100 µL ACETONE 3/WK FOR 20 WK BEGINNING 10 D POST CARCINOGEN TREATMENT (STUDY DURATION: 22 WK), Route [Carcinogen]: DERMAL, Strain/Sex: CRL:CD-1/FEMALE
